Values quoted from earlier work in patent publication US10898463B2, “High-strength oral cannabinoid dosage forms” (ICDPHARMA LTD, priority 2016, dated 2021).

Conditions: octanol/water

Row | Molecule | LogP
1 | C=CC(C)(O)CCC=C(C)CCC=C(C)C (stereo not shown) [Nerolidol] | 4.68
2 | CC12CCC(CC1=O)C2(C)C (stereo not shown) [Camphor] | 2.55
3 | CC1=CCC(O)(C(C)C)CC1 (stereo not shown) [Terpinen-4-ol] | 3.26
4 | Terpinene | 4.5
5 | C=CCc1ccc(O)c(OC)c1 [Eugenol] | 2.66
6 | C=C1C2CCC(C2)C1(C)C (stereo not shown) [Camphene] | 4.24
7 | CC1=CCC2C(C1)C2(C)C (stereo not shown) [Carene] | 4.32
8 | CC(C)=C1CC[C@@H](C)CC1=O [Pulegone] | 3.08
9 | CC12CCC(CC1)C(C)(C)O2 [Cineol] | 2.7
10 | C=C1CC/C=C(\C)CC[C@@H]2[C@@H]1CC2(C)C [Beta-caryophyllene] | 4.72
11 | Citronella | 3.53
12 | C=C(C)[C@H]1CC=C(C)CC1 [Limonene] | 2.38
13 | COC(=O)c1ccccc1O [Methyl salicylate] | 2.3
14 | CC1=CCC2CC1C2(C)C (stereo not shown) [Alfa-pinene] | 4.37
15 | CC(C)=CCC[C@](C)(O)C1CC=C(C)CC1 (stereo partly shown) [Bisabolol] | 5.07
16 | Cc1ccc(C(C)C)c(O)c1 [Thymol] | 3.28
17 | C/C(=C\CO)CCC[C@H](C)CCC[C@H](C)CCCC(C)C [Phytol] | 7.04
18 | C=CC(=C)CCC=C(C)C [Myrcene] | 4.17
19 | C=CC(C)(O)CCC=C(C)C (stereo not shown) [Linalool] | 2.65
